# ChEMBL document CHEMBL1123439, “Folate analogues. 26. Syntheses and antifolate activity of 10-substituted derivatives of 5,8-dideazafolic acid and of the poly-gamma-glutamyl metabolites of N10-propargyl-5,8-dideazafolic acid (PDDF)” (J Med Chem, 1986)
# Experiments:
# [1] = target: T1, Thymidylate synthase (Lactobacillus casei, UniProt P00469); experiment: Inhibitory activity against thymidylate synthase of Lactobacillus casei; design: species or system Lacticaseibacillus casei
# T1 sequence (P00469 whole entry): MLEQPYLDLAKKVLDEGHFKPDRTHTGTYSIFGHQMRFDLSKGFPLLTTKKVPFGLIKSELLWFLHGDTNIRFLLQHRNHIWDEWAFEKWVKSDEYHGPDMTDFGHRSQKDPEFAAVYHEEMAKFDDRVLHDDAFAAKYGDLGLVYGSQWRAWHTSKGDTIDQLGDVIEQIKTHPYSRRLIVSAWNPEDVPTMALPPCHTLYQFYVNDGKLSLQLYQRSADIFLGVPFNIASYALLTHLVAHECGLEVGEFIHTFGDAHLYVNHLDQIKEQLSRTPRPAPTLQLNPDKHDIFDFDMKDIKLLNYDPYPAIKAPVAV
# [2] = test system: Lacticaseibacillus casei; experiment: Inhibitory activity against Lactobacillus casei MTX-resistant; type: functional, organism-based
# [3] = test system: Lacticaseibacillus casei; experiment: Inhibitory activity against Lactobacillus casei ATCC 7469; type: functional, organism-based
# [4] = test system: Enterococcus faecium; experiment: Inhibitory activity against Streptococcus faecium MTX-resistant; type: functional, organism-based
# [5] = target: Dihydrofolate reductase (Lactobacillus casei, UniProt P00381); experiment: Inhibitory activity against dihydrofolate reductase of Lactobacillus casei; design: species or system Lacticaseibacillus casei
# [6] = test system: Enterococcus faecium; experiment: Inhibitory activity against Streptococcus faecium ATCC 8043; type: functional, organism-based
# [7] = test system: L1210; experiment: Inhibition of thymidylate synthesis in permeabilised cells; type: functional, cell-based; details: Mus musculus
# [8] = test system: L1210; experiment: Inhibition of thymidylate synthesis in L1210 intact cells at 10 uM; type: functional; details: Mus musculus
# [9] = test system: L1210; experiment: Inhibition of thymidylate synthesis in L1210 cells at 100 uM; type: functional; details: Mus musculus
# Sequence of Dihydrofolate reductase (P00381 whole entry): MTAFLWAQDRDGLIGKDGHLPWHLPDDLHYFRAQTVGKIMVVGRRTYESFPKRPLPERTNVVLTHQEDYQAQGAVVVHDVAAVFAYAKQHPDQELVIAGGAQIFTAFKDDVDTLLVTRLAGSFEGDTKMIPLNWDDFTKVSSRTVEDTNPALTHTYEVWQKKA
SMILES,IC50 [1],IC50 [2],IC50 [3],IC50 [4],IC50 [5],IC50 [6],IC50 [7],inhibition at 10 µM [8],inhibition at 100 µM [9]
Nc1nc(O)c2cc(CN(CC3CC3)c3ccc(C(=O)N[C@@H](CCC(=O)O)C(=O)O)cc3)ccc2n1,12 µM,> 20 µM,8.1 nM,1.5 µM,2.3 µM,0.0026 µM,82 µM,–,–
C#CN(Cc1ccc2nc(N)nc(O)c2c1)c1ccc(C(=O)NC(CCC(=O)O)C(=O)NC(CCC(=O)NC(CCC(=O)NC(CCC(=O)O)C(=O)O)C(=O)O)C(=O)O)cc1 (stereo unspecified),0.014 µM,> 20 µM,0.18 nM,> 0.8 µM,3.7 µM,0.075 µM,0.0014 µM,0%,3%
CC#CCN(Cc1ccc2nc(N)nc(O)c2c1)c1ccc(C(=O)N[C@@H](CCC(=O)O)C(=O)O)cc1,4.4 µM,> 20 µM,86 nM,1.6 µM,250 µM,0.0067 µM,14 µM,–,–
C#CN(Cc1ccc2nc(N)nc(O)c2c1)c1ccc(C(=O)NC(CCC(=O)O)C(=O)NC(CCC(=O)NC(CCC(=O)NC(CCC(=O)NC(CCC(=O)O)C(=O)O)C(=O)O)C(=O)O)C(=O)O)cc1 (stereo unspecified),0.013 µM,> 20 µM,0.35 nM,> 0.8 µM,2.9 µM,> 0.08 µM,0.002 µM,0%,8%
C#CN(Cc1ccc2nc(N)nc(O)c2c1)c1ccc(C(=O)NC(CCC(=O)O)C(=O)NC(CCC(=O)O)C(=O)O)cc1 (stereo unspecified),–,0.28 µM,0.05 nM,0.125 µM,–,0.00036 µM,0.006 µM,0%,32%
C#CN(Cc1ccc2nc(N)nc(O)c2c1)c1ccc(C(=O)NC(CCC=O)C(=O)O)cc1 (stereo unspecified),–,–,0.4 nM,0.02 µM,–,0.00013 µM,0.03 µM,55%,87%
C#CN(Cc1ccc2nc(N)nc(O)c2c1)c1ccc(C(=O)NC(CCC(=O)NC(CCC(=O)NC(CCC(=O)O)C(=O)O)C(=O)O)C(=O)O)cc1 (stereo unspecified),0.014 µM,1.1 µM,0.08 nM,> 0.8 µM,5.3 µM,0.034 µM,0.002 µM,0%,8%
CN(Cc1cnc2nc(N)nc(N)c2n1)c1ccc(C(=O)N[C@@H](CCC(=O)O)C(=O)O)cc1 [METHOTREXATE],–,> 1000 µM,0.03 nM,3.9 µM,–,0.0003 µM,60 µM,95%,98%
